Assay results published in patent US12343350B2, “Istaroxime-containing intravenous formulation for the treatment of acute heart failure (AHF)” (Windtree Therapeutics, Inc., priority 2019, dated 2025).
Structures can show the parent of a compound that is named as a salt. Where two headings read alike, the source gives them in different places. Marks after values point to notes of the source that are not given here.

Columns and labels:
[1] = death due mainly to arrhythmias; cited from earlier work
SERCA2a [2] = conditions: previous studies; cited from earlier work
dog renal Na,K-ATPase = dog renal Na,K-ATPase (Canis lupus familiaris (Dog) (Canis familiaris), UniProt P50997); test: Inhibition of dog renal Na,K-ATPase activity (32P-ATP); type: biochemical
Protocol: Kidneys were sliced and the outer medulla was dissected, pooled and suspended (1 g/10 ml) in a sucrose-histidine solution, containing 250 mM sucrose, 30 mM histidine and 5 mM EDTA, pH 7.2 and homogenized. The homogenate was centrifuged at 6.000 g for 15 min, the supernatant was decanted and centrifuged at 48.000 g for 30 min. The pellet was suspended in the sucrose-histidine buffer and incubated for 20 min with a sodium-dodecyl-sulphate (SDS) solution dissolved in a gradient buffer, containing 25 mM imidazole and 1 mM EDTA, pH 7.5. […] The pellet was suspended in the gradient buffer.
Increasing concentrations of the standard ouabain, or tested compound, were incubated with 0.3 μg of purified dog kidney enzyme for 10 min at 37° C. in 120 μl final volume of a medium containing 140 mM NaCl, 3 mM MgCl2, 50 mM Hepes-Tris, 3 mM ATP at a pH 7.5. Then, 10 μl of incubation solution containing 10 mM KCl and 20 nCi of ^32P-ATP (3-10 Ci/mmol, Perkin Elmer) was added, and the reaction was continued for 15 min at 37° C. The reaction was then stopped by acidification with 20% v/v ice-cold perchloric acid. ^32P was separated by centrifugation with activated Charcoal (Norit A, Serva) and the radioactivity was measured. The inhibitory activity was expressed as percent of the control samples carried out in the absence of ouabain or tested compound.

SERCA2a [3] = target: SERCA2a (Canis lupus familiaris (Dog) (Canis familiaris), UniProt O46674); test: SERCA2a ATPase activity in heart-derived SR microsomes from normal dog; type: biochemical; conditions: normal dog SR microsomes
Protocol: Male beagle dogs were used for obtaining cardiac tissues for SERCA2a-enriched sarcoplasmic reticulum preparations. Healthy dogs were utilized for obtaining the data in Table 3. Chronic heart failure was induced in dogs by multiple intracoronary microembolizations with polystyrene latex microspheres ([…], Polysciences, Warrington, PA, USA) as described previously (see Sabbah H N et al., Am J Physiol. 1991; 260:H1379-84). The experiments were conducted in the General Pharmacology Department of Sigma-Tau, Rome, Italy.
Left ventricle tissues were dissected, homogenized in 4 volumes of 10 mM NaHCO3 (pH 7), 1 mM PMSF, 10 μg/ml Aprotinin and Leupeptin and centrifuged at 12.000 g for 15 minutes, as described in Nediani C. et al. (J Biol Chem. 1996; 271:19066-73). Supernatants were filtered and centrifuged at 100.000 g for 30 min. Contractile proteins were extracted by suspending the pellets with 0.6 M KCl, 30 mM Histidine, pH 7 and further centrifugation at 100.000 g for 30 min. Final pellets were reconstituted with 0.3 M Sucrose, 30 mM Histidine, pH 7.
SERCA2a activity was measured in vitro as ^32P-ATP hydrolysis at different Ca2^+ concentrations (100 to 3000 nM) in the absence and presence of the tested compounds as described previously (see Micheletti R. et al., Am J Card 2007; 99:24A-32A). Increasing concentrations of each compound (from 0.05 to 300 nM) were pre-incubated with 2 μg of microsomes for 5 min at 4° C. in 80 μl of a solution containing 100 mM KCl, 5 mM MgCl2, 1 μM A23187, 20 mM Tris, pH 7.5. Then, 20 μl of 5 mM Tris-ATP containing 50 nCi of ^32P-ATP (3-10 Ci/mmol, Perkin Elmer) was added. The ATP hydrolysis was continued for 15 min at 37° C. and was stopped by acidification with 100 μl of 20% v/v ice-cold perchloric acid. ^32P was separated by centrifugation with activated charcoal (Norit A, SERVA) and the radioactivity was measured. SERCA2a-dependent activity was identified as the portion of total hydrolytic activity inhibited by 10 μM cyclopiazonic acid (see Seidler N W. et al., J Biol Chem. 1989; 264:17816-23).
Dose-response curves were fitted by using a sigmoidal curve fitting software and the maximal velocity (Vmax) activity and the Kd Ca2^+ were calculated (Synergy Software KaleidaGraph 3.6).
The compounds disclosed herein were tested on SERCA2a ATPase activity prepared from normal and failing dogs in a range of concentrations from […]. The effect has been expressed as % increase of the Vmax activity of a control sample run in the absence of compound. Data are mean & SD, where n indicates the number of experiments.

[4] = Plasma levels of istaroxime and its metabolites in patients (HPLC-MS/MS); type: in vivo, human; conditions: 24 h infusion of 0.5 or 1 μg/kg/min istaroxime, Caucasian and Chinese patients
Protocol: The quantitative determination of PST 2744 and its metabolite PST 2915 in human plasma was determined by the HPLC-MS/MS method that included a mobile phase of 70:30 acetonitrile/water, 1 mL/L 1M formic acid, and 1 mL/L 5M ammonium acetate. The flow rate was 1 mL/min, and the chromatographic separation was by reversed phase HPLC (Column: SYNERGI 4μ POLAR-RP80A 150×4.6 mm equipped with a Security-guard Phenomenex Polar-RP 4×3 mm). Detection was performed by MS/MS, and the acquisition mode was Multiple Reaction Monitoring (MRM).
The quantitative determination of istaroxime metabolies PST 2922 and PST 3093 in human plasma was also measured by the HPLC-MS/MS method. In this case, the mobile phase was 50:50 H2 O/CH3 CN (v/v) and 500 μL/L 98-100% HCOOH. The flow rate was 1 mL/min and chromatographic separation was done by reversed-phase HPLC (Column: Phenomenex Phenyl hexyl, 150×4.6 mm, equipped with a Phenomenex phenyl propyl guard-cartridge) under isocratic conditions. Detection was performed by MS/MS (376.0→282.0 amu for PST2922, 378.0→284.0 amu for PST 3093 and 362.0→268.0 amu for PST 3418, IS).

[5] = stimulation of cardiac pumping ability; cited from earlier work

Sequence of SERCA2a (Canis lupus familiaris (Dog) (Canis familiaris), UniProt O46674) (O46674 whole entry): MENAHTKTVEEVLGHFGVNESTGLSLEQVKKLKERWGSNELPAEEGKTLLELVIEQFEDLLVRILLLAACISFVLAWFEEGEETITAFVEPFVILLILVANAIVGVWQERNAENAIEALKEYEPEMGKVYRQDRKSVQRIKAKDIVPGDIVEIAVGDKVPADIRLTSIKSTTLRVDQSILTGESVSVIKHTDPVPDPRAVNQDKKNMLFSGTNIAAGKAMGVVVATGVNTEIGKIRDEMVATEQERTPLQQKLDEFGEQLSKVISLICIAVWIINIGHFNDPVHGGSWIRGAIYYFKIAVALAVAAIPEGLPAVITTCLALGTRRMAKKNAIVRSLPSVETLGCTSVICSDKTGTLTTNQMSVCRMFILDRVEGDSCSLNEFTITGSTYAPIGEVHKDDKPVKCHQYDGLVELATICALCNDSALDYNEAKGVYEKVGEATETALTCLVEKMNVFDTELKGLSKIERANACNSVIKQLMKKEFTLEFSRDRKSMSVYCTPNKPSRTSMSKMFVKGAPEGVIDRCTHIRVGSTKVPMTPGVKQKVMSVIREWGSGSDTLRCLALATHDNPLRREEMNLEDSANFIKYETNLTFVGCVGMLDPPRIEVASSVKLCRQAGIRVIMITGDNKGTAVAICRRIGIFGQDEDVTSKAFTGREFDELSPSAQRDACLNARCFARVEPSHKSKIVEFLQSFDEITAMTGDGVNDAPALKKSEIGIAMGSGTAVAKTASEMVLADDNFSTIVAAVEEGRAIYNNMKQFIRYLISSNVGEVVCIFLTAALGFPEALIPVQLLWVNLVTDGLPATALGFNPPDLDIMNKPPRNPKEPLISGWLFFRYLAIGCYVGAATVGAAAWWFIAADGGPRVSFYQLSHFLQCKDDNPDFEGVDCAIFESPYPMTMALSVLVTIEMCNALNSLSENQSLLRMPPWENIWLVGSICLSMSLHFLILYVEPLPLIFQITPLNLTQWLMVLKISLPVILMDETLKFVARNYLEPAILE

C[C@H]1O[C@@H](O[C@H]2[C@@H](O)C[C@H](O[C@H]3[C@@H](O)C[C@H](O[C@H]4CC[C@@]5(C)[C@H](CC[C@@H]6[C@@H]5C[C@@H](O)[C@]5(C)[C@@H](C7=CC(=O)OC7)CC[C@]65O)C4)O[C@@H]3C)O[C@@H]2C)C[C@H](O)[C@@H]1O [Digoxin]
serum concentration threshold above which increased risk of death [1]: 0.9 ng/mL
SERCA2a activity stimulation (SERCA2a [2]): failed to stimulate
IC50 (dog renal Na,K-ATPase; purified dog kidney enzyme, 37° C., read-out: IC50, inhibition of dog renal Na,K-ATPase): 180 nM

C[C@]12CCC(=NOCCN)CC1[C@H](O)CC1C2CC[C@]2(C)C(=O)CCC12 (stereo partly drawn) [PST 2915, (E,Z)-3-(2-Aminoethoxyimino)-6beta-hydroxyandrostan-17-one hydrochloride]
% increase vs control (Vmax) (SERCA2a [3]; 0.1 nM compound): 11%
% increase vs control (Vmax) (SERCA2a [3]; 10 nM compound): 16* %
IC50 (dog renal Na,K-ATPase): 2100 nM
plasma concentration course during the infusion period [4]: continue to accumulate

COC(=O)N1CCN(Cc2cccc(NC(=O)Nc3ccc(C)nc3)c2F)CC1 [omecamtiv]
plasma levels of Hs TnT [5]: associated with an increase
